Reference: paper PMC1238745, “A Surface Groove Essential for Viral Bcl-2 Function During Chronic Infection In Vivo” (PLoS Pathogens, 2005)
Ends that are not written are not given here.

Columns and labels:
[1] = target: T1, γHV68 v-Bcl-2 (wild-type) (Murid herpesvirus 4, UniProt P89884); assay: NMR titration of BH3 peptides with wild-type γHV68 v-Bcl-2; format: binding, murine γ-herpesvirus 68; conditions: 303 K; for binding over the concentration range of the titration: pH 7.8, peptide up to 320 μM
T1 construct: we expressed amino acids 1–137 of the v-Bcl-2, removing the carboxy-terminal hydrophobic domain; made in house; host or cells: E. coli BL21(DE3)
Protocol: (§1) Wild-type and SGR/AAA v-Bcl-2 used in NMR studies were expressed in E. coli BL21(DE3) strain grown on M9 media. For wild-type v-Bcl-2, uniformly ^15N-labeled, uniformly ^15N,^13C-labeled, and uniformly ^15N,^13C-labeled, 75% ^2H samples were prepared with media containing either ^15NH4Cl, ^15NH4Cl plus [U-^13C]glucose or ^15NH4Cl, [U-^13C]glucose, and 75% ^2H2O, respectively. For SGR/AAA v-Bcl-2, a ^15N-labeled sample was prepared with media containing ^15NH4Cl as the sole nitrogen source. Soluble protein was purified by Ni^2+-affinity chromatography. NMR samples contained 0.5–1.0 mM protein in either 90% H2O with 10% ^2H2O or 100% ^2H2O, 20 mM ^2H-TRIS (pH 7.8), and 5 mM ^2H-dithiothreitol.
(§2) All NMR experiments were acquired at 303 K on a Bruker DRX500, DRX600 or DRX800 NMR spectrometer. […] Side-chain ^1H and ^13C NMR signals were assigned from HCCH-TOCSY experiments. Stereospecific assignments of valine and leucine methyl groups were obtained from an analysis of the ^13C-^13C coupling patterns observed for biosynthetically directed, fractionally ^13C-labeled γHV68 v-Bcl-2 [87]. NOE distance restraints were obtained from three-dimensional ^15N- and ^13C-edited NOESY spectra acquired with a mixing time of 80 ms. Slowly exchanging amide protons were identified in an ^15N-HSQC spectrum recorded immediately after exchanging the protein into a buffer prepared with ^2H2O.
(§3) Binding of the Bak 16-mer ([…]), the Bax 16-mer ([…]), the Bad 25-mer ([…]), and a D83A mutant Bak 16-mer ([…]) to wild-type v-Bcl-2, and binding of the Bax 16-mer to SGR/AAA v-Bcl-2 was assessed by NMR titration. Each peptide was titrated from a concentrated stock solution into a sample of ^13C-labeled protein, and binding was monitored from changes in a ^13C methyl-HSQC spectrum. For wild-type v-Bcl-2, ^13C-HSQC spectra were recorded on a uniformly ^13C,^15N-labeled protein sample (120 μM) in the presence of increasing amounts of peptide (40, 80, 160, 240, and 320 μM). For SGR/AAA v-Bcl-2, ^15N-HSQC spectra were recorded on a sample of uniformly ^15N-labeled protein in the presence of increasing amounts of peptide.

[2] = target: T2, γHV68 v-Bcl-2 (wild-type) (Murid herpesvirus 4, UniProt P89884); assay: as above; format: binding, murine γ-herpesvirus 68; conditions: changes in 13C methyl-HSQC spectrum, 120 μM 13C,15N-labeled protein, peptide 40, 80, 160, 240, and 320 μM, 20 mM 2H-TRIS pH 7.8, 5 mM 2H-dithiothreitol, 303 K
T2 construct: we expressed amino acids 1–137 of the v-Bcl-2, removing the carboxy-terminal hydrophobic domain; made in house; host or cells: E. coli BL21(DE3)
T2 sequence (P89884 whole entry, looked up): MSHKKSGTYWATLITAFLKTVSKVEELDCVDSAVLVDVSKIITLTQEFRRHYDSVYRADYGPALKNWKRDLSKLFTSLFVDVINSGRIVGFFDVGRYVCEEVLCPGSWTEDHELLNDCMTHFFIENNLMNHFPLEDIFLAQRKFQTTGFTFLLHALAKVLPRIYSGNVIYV
Protocol: as §1, §2, §3

[3] = target: Bcl-2 and Bcl-xL; conditions: Bad BH3 peptide; ref [9]; read-out: affinity; cited from earlier work
[4] = system: Mcl-1; conditions: ref [70],[71]; cited from earlier work
Source text: (§4) In this property, the γHV68 and KSHV v-Bcl-2 proteins resemble cellular Mcl-1, which also fails to bind Bad BH3 peptide and is important for development of B cells, one of the cell types in which γHV68 establishes latency. One possible explanation for the lack of binding to the Bad BH3 peptide is that v-Bcl-2 binding to Bad is detrimental to the virus. Bad was recently found to be essential for assembly of a holoenzyme tha ...

[5] = system: KSHV v-Bcl-2; conditions: ref [9]; cited from earlier work
Source text: as §4, with “Each of these proteins interacts with BH3 peptides from Bak and Bax, but the viral proteins differ from the host proteins in their inability to bind the Bad BH3 peptide. […] In” for “In”

[6] = system: Bcl-xL; conditions: vs Bak peptide; no reference in the sentence, preceding paragraph cites ref [53]; cited from earlier work

Sequence	binding over the concentration range of the titration [1]	Kd [2] [µM]	Kd [3] [µM]	binding of Bad BH3 peptide to Mcl-1 [4]	binding to KSHV v-Bcl-2 [5]	exchange with γHV68 v-Bcl-2 on the NMR timescale ([1]; pH 7.8)	Kd ([1]; changes in 13C methyl-HSQC spectrum, 120 μM 13C,15N-labeled protein, peptide 40, 80, 160, 240, and 320 μM, 20 mM 2H-TRIS pH 7.8, 5 mM 2H-dithiothreitol) [µM]	fold reduction of affinity for Bcl-xL by D83A mutation [6]
NLWAAQRYGRELRRMSDEFVSFKK [Bad BH3 peptide, Bad 25-mer ([…]), BH3 peptide from proapoptotic Bad]	bound weakly	> 300	0.0006 to 0.015	fails to bind	much lower affinity than is observed for Bcl-2 or Bcl-xL			
KKLSECLKRIGDELDS [Bax peptide]					interacts	slow exchange		
GQVGRQLAIIGADINR [D83A mutant Bak peptide]	no binding						> 300	more than 120 fold
